Laboratory results taken from ChEMBL document CHEMBL2150995, “Identification of an Adamantyl Azaquinolone JNK Selective Inhibitor” (ACS Med Chem Lett, 2012).
≈ marks a conversion by molar mass, not a printed value. Blank lines part the entries; values can stand above or below the compound they belong to. Calls of active or inactive are those of the source. No cut-off for these calls is given here.

Legend:
[1] = Drug uptake in C57 mouse kidney at 30 mg/kg, po measured at 8 hrs; format: ADME, organism-based; design: dose 30 mg/kg, route oral; conditions: read-out: Drug uptake
[2] = molecular target: T1, Mitogen-activated protein kinase 8 (Homo sapiens, UniProt P45983); assay: Inhibition of JNK1 after 30 mins by TR-FRET assay
T1 sequence (P45983 whole entry): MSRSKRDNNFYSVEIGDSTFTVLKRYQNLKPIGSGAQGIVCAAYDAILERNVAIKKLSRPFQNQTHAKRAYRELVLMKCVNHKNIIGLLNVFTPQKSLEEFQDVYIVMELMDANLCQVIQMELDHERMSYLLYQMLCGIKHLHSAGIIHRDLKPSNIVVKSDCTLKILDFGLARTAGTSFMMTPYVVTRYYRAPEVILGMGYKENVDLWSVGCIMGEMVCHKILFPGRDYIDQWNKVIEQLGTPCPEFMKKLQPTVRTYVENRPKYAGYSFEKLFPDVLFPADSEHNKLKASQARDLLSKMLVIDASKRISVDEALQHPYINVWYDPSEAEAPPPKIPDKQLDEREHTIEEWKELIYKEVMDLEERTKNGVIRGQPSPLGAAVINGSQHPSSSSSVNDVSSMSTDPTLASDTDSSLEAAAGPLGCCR

[3] = Plasma concentration in C57 mouse at 30 mg/kg, po measured at 8 hrs; format: ADME, organism-based; design: dose 30 mg/kg, route oral
[4] = Solubility of the compound in acetonitrile/water at pH 6.5 by lyophilization solubility assay; format: physicochemical
[5] = Cmax in C57 mouse at 30 mg/kg, po; format: ADME, organism-based; design: dose 30 mg/kg, route oral; conditions: in vivo
[6] = AUC in C57 mouse at 30 mg/kg, po; format: ADME, organism-based; design: dose 30 mg/kg, route oral; conditions: plasma
[7] = Drug uptake in C57 mouse liver at 30 mg/kg, po measured at 8 hrs; format: ADME, organism-based; design: dose 30 mg/kg, route oral; conditions: read-out: Drug uptake
[8] = Clearance in mouse liver microsomes; format: ADME, Microsome
[9] = molecular target: T1, Mitogen-activated protein kinase 8; assay: Inhibition of JNK1-mediated c-jun phosphorylation in TNF-alpha stimulated human HK-2 cells after 30 mins by TR-FRET assay; format: cell-based
[10] = Clearance in mouse hepatocytes; format: ADME, cell-based, Liver, Hepatocyte
[11] = Tmax in C57 mouse at 30 mg/kg, po; format: ADME, organism-based; design: dose 30 mg/kg, route oral; conditions: in vivo
[12] = Mean residence time in C57 mouse at 30 mg/kg, po; format: ADME, organism-based; design: dose 30 mg/kg, route oral; conditions: in vivo
[13] = Volume of distribution at steady state in C57 mouse at 5 mg/kg, iv; format: ADME, organism-based; design: dose 5 mg/kg, route intravenous; conditions: in vivo, read-out: Vdss
[14] = AUC in rat at 75 mg/kg, po administered as MBP formulation; format: ADME, organism-based; design: dose 75 mg/kg, route oral; conditions: plasma
[15] = Cmax in rat at 75 mg/kg, po administered as MBP formulation; format: ADME, organism-based; design: dose 75 mg/kg, route oral; conditions: in vivo
[16] = tested on: Rattus norvegicus; assay: In vivo inhibition of JNK-mediated c-jun phosphorylation in Sprague-Dawley rat kidney at 75 mg/kg, po bid administered in MBP formulation 23 hrs prior TNF-alpha challenge measured 1 hr post challenge by Western blot method; format: functional, organism-based; design: dose 75 mg/kg
[17] = AUC in C57 mouse at 30 mg/kg, po administered as DMSO formulation; format: ADME, organism-based; design: dose 30 mg/kg, route oral; conditions: plasma
[18] = Tmax in C57 mouse at 75 mg/kg, po administered as MBP formulation; format: ADME, organism-based; design: dose 75 mg/kg, route oral; conditions: in vivo
[19] = Tmax in rat at 30 mg/kg, po administered as DMSO formulation; format: ADME, organism-based; design: dose 30 mg/kg, route oral; conditions: in vivo
[20] = Half life in rat at 30 mg/kg, po administered as DMSO formulation; format: ADME, organism-based; design: dose 30 mg/kg, route oral; conditions: in vivo
[21] = Half life in C57 mouse at 75 mg/kg, po administered as MBP formulation; format: ADME, organism-based; design: dose 75 mg/kg, route oral; conditions: in vivo
[22] = Cmax in C57 mouse at 30 mg/kg, po administered as DMSO formulation; format: ADME, organism-based; design: dose 30 mg/kg, route oral; conditions: in vivo
[23] = Half life in rat at 5 mg/kg, iv administered as DMSO formulation; format: ADME, organism-based; design: dose 5 mg/kg, route intravenous; conditions: in vivo
[24] = Clearance in C57 mouse at 5 mg/kg, iv; format: ADME, organism-based; design: dose 5 mg/kg, route intravenous; conditions: in vivo
[25] = AUC (0 to 24 hrs) in C57 mouse at 5 mg/kg, iv; format: ADME, organism-based; design: time < 24 hr, dose 5 mg/kg, route intravenous; conditions: plasma
[26] = Volume of distribution in rat at 5 mg/kg, iv administered as DMSO formulation; format: ADME, organism-based; design: dose 5 mg/kg, route intravenous; conditions: in vivo
[27] = Tmax in rat at 75 mg/kg, po administered as MBP formulation; format: ADME, organism-based; design: dose 75 mg/kg, route oral; conditions: in vivo
[28] = Mean residence time in C57 mouse at 5 mg/kg, iv administered as DMSO formulation; format: ADME, organism-based; design: dose 5 mg/kg, route intravenous; conditions: in vivo
[29] = tested on: Rattus norvegicus; assay: In vivo inhibition of JNK-mediated c-jun phosphorylation in Sprague-Dawley rat kidney at 75 mg/kg, po tid administered in MBP formulation 23 hrs prior TNF-alpha challenge measured 1 hr post challenge by Western blot method; format: functional, organism-based; design: dose 75 mg/kg
[30] = Volume of distribution in C57 mouse at 5 mg/kg, iv administered as DMSO formulation; format: ADME, organism-based; design: dose 5 mg/kg, route intravenous; conditions: in vivo
[31] = Mean residence time in rat at 5 mg/kg, iv administered as DMSO formulation; format: ADME, organism-based; design: dose 5 mg/kg, route intravenous; conditions: in vivo
[32] = tested on: Rattus norvegicus; assay: In vivo inhibition of JNK-mediated c-jun phosphorylation in Sprague-Dawley rat assessed as phosphorylated c-jun level in kidney at 75 mg/kg, po administered as single dose in MBP formulation 7 hrs prior TNF-alpha challenge measured 1 hr post challenge by Western blot method relative to untreated control; format: functional
[33] = Clearance in C57 mouse at 5 mg/kg, iv administered as DMSO formulation; format: ADME, organism-based; design: dose 5 mg/kg, route intravenous; conditions: in vivo
[34] = Cmax in C57 mouse at 75 mg/kg, po administered as MBP formulation; format: ADME, organism-based; design: dose 75 mg/kg, route oral; conditions: in vivo
[35] = AUC in rat at 30 mg/kg, po administered as DMSO formulation; format: ADME, organism-based; design: dose 30 mg/kg, route oral; conditions: plasma
[36] = Half life in rat at 75 mg/kg, po administered as MBP formulation; format: ADME, organism-based; design: dose 75 mg/kg, route oral; conditions: in vivo
[37] = Clearance in rat at 5 mg/kg, iv administered as DMSO formulation; format: ADME, organism-based; design: dose 5 mg/kg, route intravenous; conditions: in vivo
[38] = Extrapolated AUC in C57 mouse at 5 mg/kg, iv administered as DMSO formulation; format: ADME, organism-based; design: dose 5 mg/kg, route intravenous; conditions: in vivo
[39] = Solubility of the compound in MeOH solvate by lyophilization solubility assay; format: physicochemical
[40] = Extrapolated AUC in rat at 5 mg/kg, iv administered as DMSO formulation; format: ADME, organism-based; design: dose 5 mg/kg, route intravenous; conditions: in vivo
[41] = AUC in C57 mouse at 75 mg/kg, po administered as MBP formulation; format: ADME, organism-based; design: dose 75 mg/kg, route oral; conditions: plasma
[42] = Cmax in rat at 30 mg/kg, po administered as DMSO formulation; format: ADME, organism-based; design: dose 30 mg/kg, route oral; conditions: in vivo
[43] = Tmax in C57 mouse at 30 mg/kg, po administered as DMSO formulation; format: ADME, organism-based; design: dose 30 mg/kg, route oral; conditions: in vivo
[44] = Half life in C57 mouse at 5 mg/kg, iv administered as DMSO formulation; format: ADME, organism-based; design: dose 5 mg/kg, route intravenous; conditions: in vivo

- concentration at 8 h [1]: 860 nM
- IC50 [2]: 45 nM
- concentration at 8 h [3]: 380 nM
- solubility [4]: 138 µg/mL (≈ 285 µM)
- Cmax [5]: 4370 ng/mL
- AUC [6]: 7480 ng·h/mL
- concentration at 8 h [7]: 4490 nM
- CLhep predicted [8]: 45 mL/min/kg
- EC50 [9]: 21000 nM
- CLhep predicted [10]: 33.2 mL/min/kg
- Tmax [11]: 0.25 h
- MRT [12]: 1.73 h
SMILES: COC(=O)c1c(Cc2ccc(C(=O)NC3(CO)CC3)cc2)c(=O)c2cccnc2n1-c1ccccc1

- concentration at 8 h [1]: 620 nM
- IC50 [2]: 45 nM
- concentration at 8 h [3]: 380 nM
- solubility [4]: 103 µg/mL (≈ 212 µM)
- Cmax [5]: 3840 ng/mL
- AUC [6]: 7010 ng·h/mL
- concentration at 8 h [7]: 2490 nM
- CLhep predicted [8]: 58 mL/min/kg
- EC50 [9]: 9000 nM
- CLhep predicted [10]: 52.9 mL/min/kg
- Tmax [11]: 0.25 h
- MRT [12]: 2.03 h
SMILES: COC(=O)c1c(Cc2ccc(C(=O)NC(C)(C)CO)cc2)c(=O)c2cccnc2n1-c1ccccc1

- concentration at 8 h [1]: 1420 nM
- concentration at 8 h [3]: 740 nM
- concentration at 8 h [7]: 4000 nM
- Tmax [11]: 0.25 h
- MRT [12]: 3.14 h
SMILES: COC(=O)c1c(Cc2ccc(C(=O)NCC(C)(C)O)cc2)c(=O)c2cccnc2n1-c1ccccc1

- concentration at 8 h [1]: 30 nM
- concentration at 8 h [3]: 20 nM
- concentration at 8 h [7]: 230 nM
- Tmax [11]: 0.25 h
- MRT [12]: 1.42 h
SMILES: COC(=O)c1c(Cc2ccc(C(=O)N[C@H](CO)C(C)(C)C)cc2)c(=O)c2cccnc2n1-c1ccccc1

Second part, the compound before the results:

SMILES: COC(=O)c1c(Cc2ccc(C(=O)NCCO)cc2)c(=O)c2ccc(Cl)cc2n1-c1ccccc1
- IC50 [2]: 44 nM
- solubility [4]: 4.6 µg/mL (≈ 9.37 µM)
- CLhep predicted [8]: 67 mL/min/kg
- EC50 [9]: 10100 nM
- CLhep predicted [10]: 31.7 mL/min/kg

SMILES: COC(=O)c1c(Cc2ccc(C(=O)N[C@H]3CC[C@H](O)CC3)cc2)c(=O)c2cccnc2n1-c1ccccc1
- concentration at 8 h [1]: 1890 nM
- concentration at 8 h [3]: 810 nM
- concentration at 8 h [7]: 5570 nM
- Tmax [11]: 0.25 h
- Vd [13]: 0.73 L/kg
- MRT [12]: 3.45 h

SMILES: COC(=O)c1c(Cc2ccc(C(=O)N[C@@H]3[C@@H]4C[C@@H]5C[C@H]3C[C@@](N)(C5)C4)cc2)c(=O)c2cccnc2n1-c1ccccc1
- solubility [4]: 21.9 µg/mL (≈ 38.9 µM)

SMILES: COC(=O)c1c(Cc2ccc(C(=O)N[C@H]3[C@@H]4C[C@@H]5C[C@H]3C[C@@](O)(C5)C4)cc2)c(=O)c2cccnc2n1-c1ccccc1
- IC50 [2]: 47 nM
- solubility [4]: 25 µg/mL (≈ 44.4 µM)
- CLhep predicted [8]: 81 mL/min/kg
- EC50 [9]: 8500 nM

SMILES: COC(=O)c1c(Cc2ccc(C(=O)N[C@@H]3[C@@H]4C[C@@H]5C[C@H]3C[C@@](O)(C5)C4)cc2)c(=O)c2cccnc2n1-c1ccccc1
- concentration at 8 h [1]: 860 nM
- AUC [14]: 252000 ng·h/mL
- Cmax [15]: 30100 ng/mL
- IC50 [2]: 12 nM
- inhibition [16]: Active
- AUC [17]: 22400 ng·h/mL
- Tmax [18]: 1 h
- concentration at 8 h [3]: 560 nM
- Tmax [19]: 4 h
- half-life [20]: 2.4 h
- half-life [21]: 1.62 h
- Cmax [22]: 13600 ng/mL
- half-life [23]: 2.4 h
- clearance [24]: 8.4 mL/min/kg
- solubility [4]: 14 µg/mL (≈ 24.8 µM)
- Cmax [5]: 13600 ng/mL
- AUC(0-t) at 24 h [25]: 9890 ng·h/mL
- AUC [6]: 22400 ng·h/mL
- concentration at 8 h [7]: 2960 nM
- Vd [26]: 0.61 L/kg
- Tmax [27]: 4 h
- MRT [28]: 0.6 h
- CLhep predicted [8]: 59 mL/min/kg
- inhibition [29]: Active
- EC50 [9]: 4100 nM
- Vd [30]: 0.3 L/kg
- MRT [31]: 1.8 h
- inhibition in vivo at 75 mg/kg [32]: 52%
- CLhep predicted [10]: 10.9 mL/min/kg
- clearance [33]: 8.4 mL/min/kg
- Cmax [34]: 18100 ng/mL
- AUC [35]: 48300 ng·h/mL
- half-life [36]: 2 h
- clearance [37]: 6.4 mL/min/kg
- AUC [38]: 9890 ng·h/mL
- Tmax [11]: 0.25 h
- solubility [39]: 14 µg/mL (≈ 24.8 µM)
- Vd [13]: 0.3 L/kg
- AUC [40]: 16300 ng·h/mL
- AUC [41]: 49200 ng·h/mL
- Cmax [42]: 8030 ng/mL
- MRT [12]: 2.38 h
- Tmax [43]: 0.25 h
- half-life [44]: 0.6 h
